Each compound was assayed against PIK3CA (human) (UniProt P42336) (assay: Inhibition of PIK3CA Kinase Activity).
Chain of PIK3CA (human) (P42336 whole entry, looked up): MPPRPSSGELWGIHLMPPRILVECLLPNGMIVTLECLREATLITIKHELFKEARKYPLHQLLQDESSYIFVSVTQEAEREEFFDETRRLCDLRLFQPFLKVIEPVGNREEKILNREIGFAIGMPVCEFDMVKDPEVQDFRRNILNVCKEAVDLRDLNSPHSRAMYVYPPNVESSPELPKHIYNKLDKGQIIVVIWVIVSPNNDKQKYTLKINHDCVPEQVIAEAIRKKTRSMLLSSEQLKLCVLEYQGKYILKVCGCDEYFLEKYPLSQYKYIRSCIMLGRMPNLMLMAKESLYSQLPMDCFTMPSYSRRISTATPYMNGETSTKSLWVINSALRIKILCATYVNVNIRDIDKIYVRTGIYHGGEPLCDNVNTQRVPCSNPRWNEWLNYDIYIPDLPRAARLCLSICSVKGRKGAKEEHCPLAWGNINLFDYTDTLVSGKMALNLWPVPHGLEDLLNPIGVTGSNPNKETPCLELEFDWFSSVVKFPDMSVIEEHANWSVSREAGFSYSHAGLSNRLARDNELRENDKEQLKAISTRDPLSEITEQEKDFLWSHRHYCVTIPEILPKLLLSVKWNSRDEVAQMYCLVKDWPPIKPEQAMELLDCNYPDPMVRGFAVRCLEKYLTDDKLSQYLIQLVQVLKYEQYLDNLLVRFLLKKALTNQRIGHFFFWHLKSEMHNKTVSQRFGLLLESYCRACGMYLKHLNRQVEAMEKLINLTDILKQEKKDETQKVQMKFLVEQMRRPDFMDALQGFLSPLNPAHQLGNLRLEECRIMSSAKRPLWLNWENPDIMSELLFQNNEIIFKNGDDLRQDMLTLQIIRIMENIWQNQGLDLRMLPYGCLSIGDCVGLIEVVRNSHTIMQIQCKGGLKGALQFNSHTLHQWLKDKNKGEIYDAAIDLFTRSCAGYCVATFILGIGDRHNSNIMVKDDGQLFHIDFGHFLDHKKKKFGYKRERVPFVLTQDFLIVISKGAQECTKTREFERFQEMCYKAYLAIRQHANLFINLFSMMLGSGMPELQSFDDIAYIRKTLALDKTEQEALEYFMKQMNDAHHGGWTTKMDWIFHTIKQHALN

Q: `Cc1ccc2c(N3CCOc4ccc(-c5ccc6nc(C)[nH]c6c5)cc4C3)ncnc2c1` was tested. Which IC50 did it give?
A: The IC50 was 10 to 50 nM.

Q: How did the IC50 turn out when `Cc1nc2c(c(N3CCOc4ccc(-c5cnc6nc(C7CC7)[nH]c6c5)cc4C3)n1)CC(C)(C)CC2` was run?
A: Its IC50 is 50 to 250 nM.

Q: With `Cc1nc2ncc(-c3ccc4c(c3)CN(c3ncnc5c3C[C@H](C)[C@@H](C)C5)CCO4)cc2[nH]1` as the compound, how does the IC50 read?
A: Its IC50 is 50 to 250 nM.

Q: With `Cc1ncnc(N2CCOc3ccc(-c4ccc(C(=O)NC5CC5)cc4)cc3C2)c1Cc1ccc(F)cc1` as the compound, how does the IC50 read?
A: The IC50 was 250 to 1000 nM.

Q: `CCNc1nc2ccc(-c3ccc4c(c3)CN(c3nc(C)nc5cc(OC)c(OC)cc35)CCO4)cc2[nH]1` was tested. Which IC50 did it give?
A: Its IC50 is 10 to 50 nM.

Q: With `CC1(C)C=Cc2ncnc(N3CCOc4ccc(-c5cnc6nc(C7CC7)[nH]c6c5)cc4C3)c2C1` as the compound, how does the IC50 read?
A: The IC50 was 10 to 50 nM.

Q: Which IC50 does the source give for `COC(=O)Nc1nc2ccc(-c3ccc4c(c3)CN(c3ccnc5cc(OC)c(OC)cc35)CCO4)cc2[nH]1` here?
A: The IC50 was no more than 10 nM.

Q: With `CC1(C)CCc2ncnc(N3CCOc4ccc(-c5cnc(N)c(S(=O)(=O)N6C[C@H]7C[C@@H]6CN7)c5)cc4C3)c2C1` as the compound, how does the IC50 read?
A: Its IC50 is 50 to 250 nM.

Q: With `Cc1nc2cc(-c3ccc4c(c3)CN(c3nc([C@H]5CCCN5)nc5c3CC(C)(C)CC5)CCO4)cnc2[nH]1` as the compound, how does the IC50 read?
A: The IC50 was no more than 10 nM.

Q: Which IC50 does the source give for `CC(C)NS(=O)(=O)c1cc(-c2ccc3c(c2)CN(c2ncnc4c2CC(C)(C)CC4)CCO3)cnc1N` here?
A: Its IC50 is no more than 10 nM.

Q: Which IC50 does the source give for `CCSc1nc2c(c(N3CCOc4ccc(-c5ccc6nc(C)[nH]c6c5)cc4C3)n1)CCC2` here?
A: Its IC50 is 250 to 1000 nM.

Q: With `CC1(C)CCc2nc(CO)nc(N3CCOc4ccc(-c5cnc6sc(N)nc6c5)cc4C3)c2C1` as the compound, how does the IC50 read?
A: Its IC50 is no more than 10 nM.

Q: Which IC50 does the source give for `CC[C@H]1CCc2c(ncnc2N2CCOc3ccc(-c4cnc5nc(N)[nH]c5c4)cc3C2)C1` here?
A: Its IC50 is no more than 10 nM.

Q: With `CC1(C)CCc2ncnc(N3CCOc4ccc(-c5cnc(N)c(S(=O)(=O)N6CCC(N)CC6)c5)cc4C3)c2C1` as the compound, how does the IC50 read?
A: The IC50 was 10 to 50 nM.

Q: `CC1(C)CCc2ncnc(N3CCOc4ccc(-c5cnc(N)c(S(=O)(=O)NCC6(N)CC6)c5)cc4C3)c2C1` was tested. Which IC50 did it give?
A: The IC50 was 50 to 250 nM.

Q: For `CCNc1nc(C)nc(N2CCOc3ccc(-c4cnc5nc(C)[nH]c5c4)cc3C2)c1C`, which IC50 is on record?
A: The IC50 was 10 to 50 nM.

Q: Which IC50 does the source give for `Cc1cccc(Cc2c(C)ncnc2N2CCOc3ccc(-c4ccc5nc(C)[nH]c5c4)cc3C2)c1` here?
A: Its IC50 is 50 to 250 nM.

Q: How did the IC50 turn out when `CC1(C)CCc2ncnc(N3CCOc4ccc(-c5cnc(Cl)c(OC(F)F)c5)cc4C3)c2C1` was run?
A: The IC50 was 250 to 1000 nM.

Q: `COc1cc2c(N3CCOc4ccc(-c5cnc6nc(N)[nH]c6c5)cc4C3)ncnc2cc1Br` was tested. Which IC50 did it give?
A: Its IC50 is 10 to 50 nM.

Q: How did the IC50 turn out when `CC1(C)CCc2ncnc(N3CCOc4ccc(-c5cnc6[nH]ncc6c5)cc4C3)c2C1` was run?
A: Its IC50 is 10 to 50 nM.

Q: How did the IC50 turn out when `CC1(C)CCc2ncnc(N3CCOc4ccc(-c5cnc(N)c(S(=O)(=O)NCCCN)c5)cc4C3)c2C1` was run?
A: The IC50 was no more than 10 nM.

Q: How did the IC50 turn out when `COc1ccc2c(N3CCOc4ccc(-c5ccc(OC)c(OC)c5)cc4C3)nc(CN(C)C)nc2c1` was run?
A: Its IC50 is 10 to 50 nM.

Q: Which IC50 does the source give for `COc1cc2c(N3CCOc4ccc(-c5ccc6nc(C)[nH]c6c5)cc4C3)ncnc2cc1O` here?
A: The IC50 was 10 to 50 nM.

Q: For `Cc1nc2ccc(-c3ccc4c(c3)CN(c3nc(-c5ccccn5)nc5c3CC(C)(C)CC5)CCO4)cc2[nH]1`, which IC50 is on record?
A: The IC50 was 250 to 1000 nM.

Q: How did the IC50 turn out when `CC1(C)CCc2ncnc(N3CCOc4ccc(-c5cnc(N)c(S(=O)(=O)NCC(N)=O)c5)cc4C3)c2C1` was run?
A: The IC50 was 10 to 50 nM.

Q: With `Cc1nc(Nc2ccccc2)c(C)c(N2CCOc3ccc(-c4cnc5nc[nH]c5c4)cc3C2)n1` as the compound, how does the IC50 read?
A: The IC50 was 10 to 50 nM.

Q: With `CCc1ncnc(N2CCOc3ccc(-c4cnc5nc(C)[nH]c5c4)cc3C2)c1C` as the compound, how does the IC50 read?
A: The IC50 was 50 to 250 nM.

Q: Which IC50 does the source give for `COCCc1c(C)nc(CN(C)C)nc1N1CCOc2ccc(-c3cnc4sc(N)nc4c3)cc2C1` here?
A: Its IC50 is 10 to 50 nM.

Q: Which IC50 does the source give for `CCNc1nc2ncc(-c3ccc4c(c3)CN(c3ncnc(C)c3Cc3ccc(F)cc3)CCO4)cc2[nH]1` here?
A: The IC50 was no more than 10 nM.

Q: How did the IC50 turn out when `CCNc1nc2ccc(-c3ccc4c(c3)CN(c3ccnc5cc(F)ccc35)CCO4)cc2[nH]1` was run?
A: The IC50 was no more than 10 nM.

Q: `Cc1nc2cc(-c3ccc4c(c3)CN(c3nc(C(C)N5CCCC5)nc5c3CC(C)(C)CC5)CCO4)cnc2[nH]1` (centres undefined) was tested. Which IC50 did it give?
A: Its IC50 is 50 to 250 nM.

Q: Which IC50 does the source give for `CNc1ncc(-c2ccc3c(c2)CN(c2ncnc4c2CC(C)(C)CC4)CCO3)cc1NS(C)(=O)=O` here?
A: The IC50 was 50 to 250 nM.

Q: `Cc1nc2ccc(-c3ccc4c(c3)CN(c3ccnc(Nc5ccccc5)n3)CCO4)cc2[nH]1` was tested. Which IC50 did it give?
A: The IC50 was 250 to 1000 nM.

Q: How did the IC50 turn out when `Cc1nc2ccc(-c3ccc4c(c3)CN(c3ncnc5ccc(Cl)cc35)CCO4)cc2[nH]1` was run?
A: The IC50 was 10 to 50 nM.

Q: `CC1(C)CCc2ncnc(N3CCOc4ccc(-c5cnc(N)c(S(=O)(=O)NC6CCNCC6)c5)cc4C3)c2C1` was tested. Which IC50 did it give?
A: Its IC50 is 50 to 250 nM.

Q: With `Cc1nc2ccc(-c3ccc4c(c3)CN(c3nc(CNC5CC5)nc(C)c3Cc3ccc(F)cc3)CCO4)cc2[nH]1` as the compound, how does the IC50 read?
A: Its IC50 is 10 to 50 nM.

Q: Which IC50 does the source give for `COCCOc1ccc(-c2ccc3c(c2)CN(c2nc(CN(C)C)nc4c2CC(C)(C)CC4)CCO3)cc1OC` here?
A: The IC50 was 50 to 250 nM.

Q: `CC1(C)CCc2ncnc(N3CCOc4ccc(-c5ccc6nc[nH]c6c5)cc4C3)c2C1` was tested. Which IC50 did it give?
A: The IC50 was 50 to 250 nM.

Q: How did the IC50 turn out when `Nc1nc2ncc(-c3ccc4c(c3)CN(c3ncnc5cccnc35)CCO4)cc2[nH]1` was run?
A: Its IC50 is 10 to 50 nM.

Q: Which IC50 does the source give for `Cc1nc2ccc(-c3ccc4c(c3)CN(c3ncnc(C)c3C(C)c3ccccc3)CCO4)cc2[nH]1` (centres undefined) here?
A: The IC50 was 10 to 50 nM.

Q: How did the IC50 turn out when `COc1ccc(-c2ccc3c(c2)CN(c2nc(CN(C)C)nc(C)c2C(C)C)CCO3)cc1NS(C)(=O)=O` was run?
A: Its IC50 is 10 to 50 nM.

Q: Which IC50 does the source give for `CC1(C)CCc2ncnc(N3CCOc4ccc(-c5cnc6c(c5)OCCN6)cc4C3)c2C1` here?
A: Its IC50 is 250 to 1000 nM.

Q: How did the IC50 turn out when `Cc1nc2ncc(-c3ccc4c(c3)CN(c3nc(-c5ccccn5)nc5c3CC(C)(C)CC5)CCO4)cc2[nH]1` was run?
A: Its IC50 is 50 to 250 nM.

Q: How did the IC50 turn out when `CC1(C)CCc2ncnc(N3CCOc4ccc(-c5cnc6[nH]c(C7CC7)nc6c5)cc4C3)c2C1` was run?
A: Its IC50 is 10 to 50 nM.

Reference: the Kinase Knowledgebase extract (Sharma et al. 2016)
